# Assay results: PubChem BioAssay (NCI)
#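 In this assay, cells in 96-well plates receive the compound at five concentrations for 48 hours. Endpoints are linearly interpolated between the surrounding concentrations. The concentration for full growth arrest is given as TGI.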
# Tests used:
# Test in all cases: inhibition of tumour cell growth, NCI panel, 48 h
# [1] = test system: 786-0 renal
# [2] = test system: A498 renal
# [3] = test system: A549 NSCLC
# [4] = test system: ACHN renal
# [5] = test system: CAKI-1 renal
# [6] = test system: CCRF-CEM leukemia
# [7] = test system: COLO 205 colon
# [8] = test system: DLD-1 colon
# [9] = test system: DMS 114 small cell lung
# [10] = test system: DMS 273 small cell lung
# [11] = test system: EKVX NSCLC
# [12] = test system: HCC-2998 colon
# [13] = test system: HCT-116 colon
# [14] = test system: HCT-15 colon
# [15] = test system: HL-60(TB) leukemia
# [16] = test system: HOP-18 NSCLC
# [17] = test system: HOP-92 NSCLC
# [18] = test system: HT29 colon
# [19] = test system: IGROV1 ovarian
# [20] = test system: K-562 leukemia
# [21] = test system: KM12 colon
# [22] = test system: KM20L2 colon
# [23] = test system: LOX IMVI melanoma
# [24] = test system: LXFL 529 NSCLC
# [25] = test system: M14 melanoma
# [26] = test system: M19-MEL melanoma
# [27] = test system: MALME-3M melanoma
# [28] = test system: NCI-H23 lung
# [29] = test system: NCI-H460 lung
# [30] = test system: OVCAR-3 ovarian
# [31] = test system: OVCAR-4 ovarian
# [32] = test system: OVCAR-5 ovarian
# [33] = test system: OVCAR-8 ovarian
# [34] = test system: RXF 393 renal
# [35] = test system: RXF-631 renal
# [36] = test system: SF-268 CNS
# [37] = test system: SF-295 CNS
# [38] = test system: SF-539 CNS
# [39] = test system: SK-MEL-28 melanoma
# [40] = test system: SK-MEL-5 melanoma
# [41] = test system: SK-OV-3 ovarian
# [42] = test system: SN12C renal
# [43] = test system: SNB-19 CNS
# [44] = test system: SNB-75 CNS
# [45] = test system: SNB-78 CNS
# [46] = test system: SW-620 colon
# [47] = test system: TK-10 renal
# [48] = test system: U251 CNS
# [49] = test system: UACC-257 melanoma
# [50] = test system: UACC-62 melanoma
# [51] = test system: UO-31 renal
# [52] = test system: XF 498 CNS
# [53] = test system: HOP-62 NSCLC
# [54] = test system: MOLT-4 leukemia
# [55] = test system: NCI-H226 lung
# [56] = test system: RPMI-8226 leukemia
smiles,measurement,setting,value
Cn1cc(NC(=O)c2cc(NC(=O)CCCCCC(=O)Nc3cc(C(=O)Nc4cc(C(=O)NCCC(=N)N)n(C)c4)n(C)c3)cn2C)cc1C(=O)NCCC(=N)N,TGI,[1],> 100 µM
same,TGI,[2],> 100 µM
same,TGI,[3],> 100 µM
same,TGI,[4],> 100 µM
same,TGI,[5],> 100 µM
same,TGI,[6],> 100 µM
same,TGI,[7],> 100 µM
same,TGI,[8],> 100 µM
same,TGI,[9],> 100 µM
same,TGI,[10],> 100 µM
same,TGI,[11],> 100 µM
same,TGI,[12],> 100 µM
same,TGI,[13],> 100 µM
same,TGI,[14],> 100 µM
same,TGI,[15],> 100 µM
same,TGI,[16],> 100 µM
same,TGI,[17],> 100 µM
same,TGI,[18],> 100 µM
same,TGI,[19],> 100 µM
same,TGI,[20],> 100 µM
same,TGI,[21],> 100 µM
same,TGI,[22],> 100 µM
same,TGI,[23],> 100 µM
same,TGI,[24],> 100 µM
same,TGI,[25],> 100 µM
same,TGI,[26],92.8 µM
same,TGI,[27],> 100 µM
same,TGI,[28],> 100 µM
same,TGI,[29],> 100 µM
same,TGI,[30],> 100 µM
same,TGI,[31],> 100 µM
same,TGI,[32],> 100 µM
same,TGI,[33],> 100 µM
same,TGI,[34],> 100 µM
same,TGI,[35],> 100 µM
same,TGI,[36],> 100 µM
same,TGI,[37],> 100 µM
same,TGI,[38],> 100 µM
same,TGI,[39],> 100 µM
same,TGI,[40],> 100 µM
same,TGI,[41],> 100 µM
same,TGI,[42],> 100 µM
same,TGI,[43],> 100 µM
same,TGI,[44],> 100 µM
same,TGI,[45],> 100 µM
same,TGI,[46],> 100 µM
same,TGI,[47],> 100 µM
same,TGI,[48],> 100 µM
same,TGI,[49],> 100 µM
same,TGI,[50],> 100 µM
same,TGI,[51],> 100 µM
same,TGI,[52],> 100 µM
COC(=O)C12C3C4C1C1C2C3C41I (stereo not drawn),TGI,[1],> 100 µM
same,TGI,[2],> 100 µM
same,TGI,[3],> 100 µM
same,TGI,[4],> 100 µM
same,TGI,[5],> 100 µM
same,TGI,[6],> 100 µM
same,TGI,[7],> 100 µM
same,TGI,[8],> 100 µM
same,TGI,[9],> 100 µM
same,TGI,[11],> 100 µM
same,TGI,[12],> 100 µM
same,TGI,[14],> 100 µM
same,TGI,[15],> 100 µM
same,TGI,[16],> 100 µM
same,TGI,[53],> 100 µM
same,TGI,[17],> 100 µM
same,TGI,[18],> 100 µM
same,TGI,[19],> 100 µM
same,TGI,[20],> 100 µM
same,TGI,[22],> 100 µM
same,TGI,[24],> 100 µM
same,TGI,[25],> 100 µM
same,TGI,[26],> 100 µM
same,TGI,[27],> 100 µM
same,TGI,[54],> 100 µM
same,TGI,[55],> 100 µM
same,TGI,[28],> 100 µM
same,TGI,[29],> 100 µM
same,TGI,[30],> 100 µM
same,TGI,[31],> 100 µM
same,TGI,[32],> 100 µM
same,TGI,[33],> 100 µM
same,TGI,[56],> 100 µM
same,TGI,[34],> 100 µM
same,TGI,[35],> 100 µM
same,TGI,[36],> 100 µM
same,TGI,[37],> 100 µM
same,TGI,[38],> 100 µM
same,TGI,[39],> 100 µM
same,TGI,[40],> 100 µM
same,TGI,[41],> 100 µM
same,TGI,[42],> 100 µM
same,TGI,[43],> 100 µM
same,TGI,[45],> 100 µM
same,TGI,[46],> 100 µM
same,TGI,[47],> 100 µM
same,TGI,[48],> 100 µM
same,TGI,[49],> 100 µM
same,TGI,[50],> 100 µM
same,TGI,[51],> 100 µM
same,TGI,[52],> 100 µM
